Measurements as given in PubChem BioAssay (NCI).
Several values for one entry are separate records, joined by “and”; a condition that tells them apart may be missing. Equal values may be shown once.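 Tested at 5 concentrations; 48 h exposure; 96-well plates; endpoints linearly interpolated, else capped at highest concentration. At the GI50, growth is halved. The concentration for full growth arrest is given as TGI.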

Columns and labels:
Experiment in all cases: NCI tumour cell line growth inhibition, 48 h
BT-549 breast = system: BT-549 breast
DMS 273 small cell lung = system: DMS 273 small cell lung
HOP-18 NSCLC = system: HOP-18 NSCLC
LXFL 529 NSCLC = system: LXFL 529 NSCLC
MCF7 breast = system: MCF7 breast
MDA-N = system: MDA-N
P388 leukemia = system: P388 leukemia
P388/ADR leukemia = system: P388/ADR leukemia
RXF-631 renal = system: RXF-631 renal
SN12K1 renal = system: SN12K1 renal
XF 498 CNS = system: XF 498 CNS
M19-MEL melanoma = system: M19-MEL melanoma

Structure (SMILES) | TGI (BT-549 breast) [µM] | GI50 (DMS 273 small cell lung) [µM] | TGI (DMS 273 small cell lung) | GI50 (HOP-18 NSCLC) [µM] | TGI (HOP-18 NSCLC) | TGI (LXFL 529 NSCLC) [µM] | TGI (MCF7 breast) [µM] | TGI (MDA-N) [µM] | TGI (P388 leukemia) [µM] | TGI (P388/ADR leukemia) [µM] | TGI (RXF-631 renal) [µM] | TGI (SN12K1 renal) [µM] | GI50 (XF 498 CNS) [µM] | TGI (XF 498 CNS) | TGI (M19-MEL melanoma) [µM]
COC1C(C)OC(OC2CC(C)(O)Cc3cc4c(c(O)c32)C(=O)c2c(O)cc3c(c2C4=O)OC2OC3(C)C(O)C(N(C)C)C2O)C(OC)C1(C)OC (stereo not drawn) | 0.00655 | 0.0298 | 0.557 µM and 0.137 µM | 0.157 | 0.919 µM and 3.11 µM | 2.84 | 0.413 | 0.00187 | 0.51 | 7.1 | 7.14 | 0.06 | 0.03 | 0.292 µM and 0.0483 µM | –
Cc1cc(C)c(C(=O)/C(=C/c2ccccc2)c2ccccc2)c(C)c1 | – | – | – | – | > 100 µM | > 100 | – | – | – | – | > 100 | – | – | > 100 µM | > 100
CCCCC1N=CNc2c1ccc1c2[nH]c2ccccc21 (stereo not drawn) | – | – | 3.38 µM | – | 22.5 µM | 3.78 | – | 3.28 | – | – | 5.97 | – | – | 3.4 µM | 11.8
O=Cc1cn(S(=O)(=O)c2ccccc2)c2ccccc12 | – | – | – | – | > 100 µM | > 100 | – | – | – | – | > 100 | – | – | > 100 µM | > 100
C/C(CC(=O)Nc1cccc(C)c1C)=N\NC(N)=S | – | – | > 100 µM | – | > 100 µM | > 100 | – | – | – | – | > 100 | – | – | > 100 µM | > 100
COc1cc(=O)oc(/C=C/CO)c1C | – | – | > 100 µM | – | > 100 µM | > 100 | – | – | – | – | > 100 | – | – | > 100 µM | > 100
C=CCn1c(=O)c(C(=O)NC(=O)OCC)cn(C2CCCCC2)c1=O | – | – | > 100 µM | – | > 100 µM | > 100 | – | – | – | – | > 100 | – | – | > 100 µM | –
